Data from publication PMC5663395, “Chemical Validation of Methionyl-tRNA Synthetase as a Druggable Target in Leishmania donovani” (ACS Infectious Diseases, 2017).
Where two headings read alike, the source gives them in different places.

What was measured:
[1] = test system: L. donovani intracellular amastigote; test: Leishmania intracellular amastigote assay; type: cell-based
Protocol: (§1) carried out as described above using 5%, 10% and 20% FBS in the media. To examine the effect of the methionine concentration on the potency of DDD806905 parasites were grown in the presence of drug and in the presence (or absence) of 20-fold excess methionine (0.3 g/l). IC50 curve fitting was undertaken in GraFit version 6.0 (Erithacus Software) using a four-parameter logistic dose-response curve (equation 6), with s the slope.
(§2) Leishmania Axenic Amastigote Assay
(§3) The Leishmania axenic amastigote assay was performed using the method published in Nühs et al 15.
(§4) Leishmania Intracellular Amastigote Assay
(§5) The intramacrophage Leishmania assay was performed using a modified version of the method described in De Rycker et al 16. […]
(§6) amphotericin B was included. Controls were as follows: columns 11 and 12: DMSO, columns 23 and 24: amphotericin B (final concentration 2 µM). 350 nl of compound was pre-dispensed into 384-well sterile intermediary plates. To the intermediary plates, 35 µl of THP-1 media was added and plates were shaken for >5 min to ensure complete mixing. THP-1 cells (8,000 per well, 50 µl) were plated into black clear-bottom 384-well plates (Corning) in presence of 20 nM phorbol 12-myristate 13- […]
in a humidified incubator for 75 h. The cells were then washed with 450 µl sterile phosphate buffered saline (PBS) supplemented with 1 mM CaCl2, 0.5 mM MgCl2, 0.1% (w/v) bovine serum albumin (PBS-A) and amastigotes were added to all wells at a multiplicity of infection of 5 (40,000 amastigotes per well). After 40 min at room temperature, plates were returned to the incubator.
Amastigotes were incubated in the presence of THP-1 macrophages for 16 h. Any remaining extracellular amastigotes were subsequently removed by washing with PBS-A followed by addition of 25 µl of the compound pre-dilutions using an Ipette-pro pipetting station (FluidX). The final dilution of each compound was 200-fold. […] For each well, i) THP-1 cell count (cytotoxicity readout) and ii) average number of amastigotes per cell (potency readout) were […]
calculated, both in terms of pEC50 values. […]

[2] = THP-1 cytotoxicity readout of intramacrophage assay; type: cell-based; conditions: human, Leishmania infected, PMA-differentiated THP-1 cells; read-out: THP-1 EC50 (toxicity)
Protocol: as §1, §2, §3, §4, §5
as §6, with “mixing.” for “mixing. THP-1 cells (8,000 per well, 50 µl) were plated into black clear-bottom 384-well plates (Corning) in presence of 20 nM phorbol 12-myristate 13-”
Amastigotes were incubated in the presence of THP-1 macrophages for 16 h. […] For each well, i) THP-1 cell count (cytotoxicity readout) and ii) average number of amastigotes per cell (potency readout) were […]

in vivo = conditions: female, Balb/c, mouse, iv
[3] = Mouse pharmacokinetics integrated in efficacy study (blood levels); conditions: female, BALB/c, whole blood, po, 50 mg/kg; for AUC(0-t): AUC(0-8h); for AUC(0-t) / Cmax: infected mice, 50 mg/kg oral; for Cmax: Cmax in blood

With Cl.Cl.O=c1nc(NCCCNCc2cc3c(Cl)cc(Cl)cc3[nH]2)[nH]c2ccccc12 [DDD806905, 2-((3-(((4,6-dichloro-1H-indol-2-yl)methyl)amino)propyl)amino)quinazolin-4(1H)-one dihydrochloride] the EC50 ([1]; in THP-1 macrophages, read-out: intracellular amastigote EC50) was 2900 nM, the MIC ([1]; intracellular assay, lowest concentration with maximal inhibition, read-out: MIC (minimum inhibitory concentration)) was 4.3 µM and the EC50 ([1]; representative curve, n=8 technical replicates, read-out: intracellular amastigote EC50, representative potency determination) was 2800 nM. The EC50 at 96 h [2] was 10000 nM, the Vd (in vivo) was 6 L/kg and the Tmax [3] was 2 h. It also gave an AUC(0-t) ([3]; day 1) of 15800 ng·h/mL, an AUC(0-t) ([3]; day 10) of 23300 ng·h/mL and a Cmax ([3]; first dose day 1) of 2600 ng/mL. For the same molecule, the Cmax ([3]; first dose day 10) was 3200 ng/mL.
